Test results taken from patent US20020169126A1, “Compositions and methods for inactivating the Akt oncogene and/or activating the p38 pro-apoptotic gene” (priority 2001, published 2002).
Counter-ions that a name gives are not always drawn. Starred links: 1 amine or outer side, 2 acyl side, 3 side chain; linkers in the order of their positions; H or OH if unused. Positions of bridges follow the written chain, without caps; N, C: chain ends. Non-standard residues stand in square brackets, D forms with d. Residues, ends and D or L forms follow the SMILES beside them. Chains are numbered I, II in the order given. Actinocin(9to1) = Cc1c2oc3c(C)ccc(C(=O)[*:1])c3nc-2c(C(=O)[*:2])c(N)c1=O; NMeV = CN[C@H](C(=O)O)C(C)C; Sar = CNCC(=O)O

Assays:
[1] = cited from earlier work; for absorption: oral; for dose excreted or recovered in the urine: unchanged, intact or active drug
p38 = experiment: Relative p38 activity (p38-p versus p38-c) after blocking Akt; assay type: cell-based, human; details: 0.1 μM, 4 hours
Procedure: (§1) In order to determine the relationships between the Akt pathway and the p38 pathway, experiments were performed with inhibitors of both pathways. Wortmannin was used to inhibit the Akt pathway. Wortmannin is a drug that inhibits P13K which is a signal protein that is directly upstream of Akt in the Akt pathway. A synthetic compound, SB203580, was used as a p38 specific inhibitor. Cells were serum starved overnight and were then treated with either SB203580 (20 μM) or Wortmannin (0.1 μM) for 4 hours, 8, hours, 16 hours, 24 hours, 36 hours. When p38 activity was blocked by SB203580 for 8 hours, the Akt activity was increased by approximately 3 fold in E1A stable expressing MDA-MB-231 cells. Whereas, when Akt activity was blocked by Wortmannin for 4 hours, the p38 activity was enhanced to approximately 6 fold. The relative p38 activity (p38-p versus p38-c) and relative Akt activity (Akt-p versus Akt-c) are illustrated in FIG. 2A and FIG. 2B respectively.

Akt = experiment: Relative Akt activity (Akt-p versus Akt-c) after blocking p38; assay type: cell-based, human; details: 20 μM, 8 hours, E1A stable expressing MDA-MB-231 cells
Procedure: as §1

breast cancer cells = experiment: Sensitization to Taxol-mediated cytotoxicity; assay type: cell-based, human; details: blocking p38 activity, together with constitutively active Akt
Procedure: The indirect measure of the viable cells after exposure to Taxol using the metabolic conversion of tetrazolium salt (MTT) to formazan was used. Cells (3×10^3/well) were seeded in triplicate in 96-well culture plates in 0.2 ml of culture medium and allowed to adhere for 24 h. After exposure to Taxol for a certain period of time, 20 μl of MTT was then added to each well. Cells were cultured for an additional 2 h, and followed by addition of 100 μl of extraction buffer (20% SDS in 50% N,N-dimethyl formamide, pH 4.7). The cells were incubated overnight at 37° C., and the plates were absorbance at 570 nm was measured.

MDA-MB-231 cells = experiment: Taxol treatment of 231 vector and 231-E1A tumors in nude mice; assay type: in vivo
From the text: To establish orthotopic breast cancer model in nude mice, human MDA-MB-231 cells were inoculated into the mammary fat pad (m.f.p.) of mouse. Tumor size were monitored and caculated on a weekly basis.
Expression of E1A enhanced the anti-tumor effect of the chemotherapeutic drug Taxol in nude mice in vivo and prolonged animal survival rate. […] TUNEL labeling of apoptotic cells in the tumor tissues with or without treatment of Taxol also confirms this. The treatment groups included the SN vehicle, SN-liposome-E1A, Taxol alone, and Taxol plus SN-E1A. At least 7 animals were included in each group.

[2] = oral and parental routes; cited from earlier work

## COc1cccc2c1C(=O)c1c(O)c3c(c(O)c1C2=O)C[C@@](O)(C(=O)CO)C[C@@H]3O[C@H]1C[C@H](N)[C@H](O)[C@H](C)O1 [Doxorubicin, 5,12-Naphthacenedione, (8s-cis)-10-[(3-amino-2,3,6-trideoxy-a-L-lyxo-hexopyranosyl)oxy]-7,8,9,10-tetrahydro-6,8,11-trihydroxy-8-(hydroxyacetyl)-1-methoxy-hydrochloride]
[1]
  absorption: absorbed poorly

## CC[C@]1(O)C[C@@H]2CN(CCc3c([nH]c4ccccc34)[C@@](C(=O)OC)(c3cc4c(cc3OC)N(C)[C@H]3[C@@](O)(C(=O)OC)[C@H](OC(C)=O)[C@]5(CC)C=CCN6CC[C@]43[C@@H]65)C2)C1 [Vinblastine]
[1]
  absorption: Unpredictable absorption
  dose excreted or recovered in the urine: Approximately 15%

## N.N.[Cl][Pt][Cl] [Cisplatin]
[1]
  absorption: not absorbed orally

## CC[C@]1(O)C[C@H]2CN(CCc3c([nH]c4ccccc34)[C@@](C(=O)OC)(c3cc4c(cc3OC)N(C=O)[C@H]3[C@@](O)(C(=O)OC)[C@H](OC(C)=O)[C@]5(CC)C=CCN6CC[C@]43[C@@H]65)C2)C1 [Vincristine]
[1]
  absorption: Unpredictable absorption

## COC[C@H]1OC(=O)c2coc3c2[C@@]1(C)C1=C(C3=O)[C@@H]2CCC(=O)[C@@]2(C)C[C@H]1OC(C)=O [Wortmannin]
p38
  enhancement of p38 activity: approximately 6 fold

## C[S+]([O-])c1ccc(-c2nc(-c3ccncc3)c(-c3ccc(F)cc3)[nH]2)cc1 (stereo not shown) [SB203580]
Akt
  increase of Akt activity: approximately 3 fold
Breast cancer cells
  effect on the ability of E1A to sensitize cells to Taxol-mediated cytotoxicity: partially abrogated

## COc1cccc2c1C(=O)c1c(O)c3c(c(O)c1C2=O)C[C@@](O)(C(C)=O)C[C@@H]3O[C@H]1C[C@H](N)[C@H](O)[C@H](C)O1 [Daunorubicin, 5,12-Naphthacenedione, (8S-cis)-8-acetyl-10-[(3-amino-2,3,6-trideoxy-a-L-lyxo-hexanopyranosyl)oxy]-7,8,9,10-tetrahydro-6,8,11-trihydroxy-10-methoxy-, hydrochloride]
[1]
  absorption: poor

## O=C(O)CCCc1ccc(N(CCCl)CCCl)cc1 [Chlorambucil, 4-[bis(2-chlorethyl)amino] benzenebutanoic acid]
[1]
  absorption: rapidly and completely absorbed from the gastrointestinal tract

## CO[C@@]12[C@H](COC(N)=O)C3=C(C(=O)C(C)=C(N)C3=O)N1C[C@@H]1N[C@@H]12 [Mitomycin]
[1]
  dose excreted or recovered in the urine: Approximately 10%

## Cc1c2oc3c(C)ccc(C(=O)N[C@@H]4C(=O)N[C@H](C(C)C)C(=O)N5CCC[C@H]5C(=O)N(C)CC(=O)N(C)[C@@H](C(C)C)C(=O)O[C@@H]4C)c3nc-2c(C(=O)N[C@@H]2C(=O)N[C@H](C(C)C)C(=O)N3CCC[C@H]3C(=O)N(C)CC(=O)N(C)[C@@H](C(C)C)C(=O)O[C@@H]2C)c(N)c1=O [Actinomycin D] (I: T[dV]P[Sar][NMeV] / II: T[dV]P[Sar][NMeV]; ester I:1-I:C, II:1-II:C; linker I:N-II:N via Actinocin(9to1))
[1]; in vivo
  excreted intact into the bile: Half of the dose
[1]
  dose excreted or recovered in the urine: 10%

## CC(=O)O[C@H]1C(=O)[C@@]2(C)[C@H]([C@H](OC(=O)c3ccccc3)[C@]3(O)C[C@H](OC(=O)[C@H](O)[C@@H](NC(=O)c4ccccc4)c4ccccc4)C(C)=C1C3(C)C)[C@]1(OC(C)=O)CO[C@@H]1C[C@@H]2O [Taxol]
MDA-MB-231 cells; 231-E1A cells
  therapeutic effect of Taxol in E1A tumors versus vector tumors: more dramatic therapeutic effect
MDA-MB-231 cells; 231 vector and 231-E1A tumors
  tumor growth under Taxol treatment: repressed tumor growth

## O=P1(N(CCCl)CCCl)NCCCO1 (stereo not shown) [Cyclophosphamide, 2H -1,3,2-Oxazaphosphorin-2-amine, N,N-bis(2-chloroethyl)tetrahydro-, 2-oxide, monohydrate]
[2]
  local tolerance: does not cause local vesication, necrosis, phlebitis or even pain
